Laboratory results from PubChem BioAssay AID248 (DTP/NCI, 2004).
Values joined by “and” are separate entries in the source; they are usually repeats but may differ in a detail not shown here. Equal values may be shown once. Inconclusive results and toxic doses are left out. Rule as the data show it: active = T/C of 150% or more; inactive = T/C below 125%.

Tested on: L1210 leukemia ip in BDF1 mice, survival T/C
Assay: NCI In Vivo Anticancer Drug Screen. Data for tumor model L1210 Leukemia (intraperitoneal) in B6D2F1 (BDF1) mice
Details: endpoint: mean survival time, higher = longer survival
Summary of the method: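 Mice bearing the transplanted tumor received compound or vehicle. Survival of the treated group was divided by that of the vehicle-treated control group to give the ratio.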

[1] = dose: 100.0 mg/kg/injection, schedule: Q04DX003 (ip), vehicle: saline with Tween-80
[2] = dose: 200.0 mg/kg/injection, schedule: Q04DX003 (ip), vehicle: saline with Tween-80
[3] = dose: 400.0 mg/kg/injection, schedule: Q04DX003 (ip), vehicle: saline with Tween-80
[4] = dose: 25.0 mg/kg/injection, schedule: Q01DX009 (ip), vehicle: saline
[5] = dose: 100.0 mg/kg/injection, schedule: Q01DX001 (ip), vehicle: carboxymethylcellulose (CMC)
[6] = dose: 200.0 mg/kg/injection, schedule: Q01DX001 (ip), vehicle: carboxymethylcellulose (CMC)
[7] = dose: 400.0 mg/kg/injection, schedule: Q01DX001 (ip), vehicle: carboxymethylcellulose (CMC)
[8] = dose: 100.0 mg/kg/injection, schedule: Q01DX001 (ip), vehicle: saline
[9] = dose: 200.0 mg/kg/injection, schedule: Q01DX001 (ip), vehicle: saline
[10] = dose: 400.0 mg/kg/injection, schedule: Q01DX001 (ip), vehicle: saline
[11] = dose: 50.0 mg/kg/injection, schedule: Q01DX001 (ip), vehicle: saline
[12] = dose: 100.0 mg/kg/injection, schedule: Q01DX009 (ip), vehicle: Klucel (hydroxypropylcellulose) (HPC)
[13] = dose: 200.0 mg/kg/injection, schedule: Q01DX009 (ip), vehicle: Klucel (hydroxypropylcellulose) (HPC)
[14] = dose: 400.0 mg/kg/injection, schedule: Q01DX009 (ip), vehicle: Klucel (hydroxypropylcellulose) (HPC)

Measured: T/C

O=C(CCl)N1CCN(C(=O)CCl)CC1
inactive: dose: 10.0 mg/kg/injection, schedule: Q01DX009 (ip), vehicle: Klucel (hydroxypropylcellulose) (HPC) 110 % of control | dose: 20.0 mg/kg/injection, schedule: Q01DX009 (ip), vehicle: Klucel (hydroxypropylcellulose) (HPC) 101 % of control | dose: 20.0 mg/kg/injection, schedule: Q04DX003 (ip), vehicle: Klucel (hydroxypropylcellulose) (HPC) 104 % of control | dose: 40.0 mg/kg/injection, schedule: Q04DX003 (ip), vehicle: Klucel (hydroxypropylcellulose) (HPC) 106 % of control

[Cl][Hg][S]C1CCCC1
inactive: dose: 5.0 mg/kg/injection, schedule: Q01DX001 (ip), vehicle: saline 106 % of control | dose: 10.0 mg/kg/injection, schedule: Q01DX001 (ip), vehicle: saline 101 % of control | dose: 20.0 mg/kg/injection, schedule: Q01DX001 (ip), vehicle: saline 101 % of control

COc1ccc(C(=O)O)c(O)c1O
inactive: dose: 100.0 mg/kg/injection, schedule: Q01DX009 (ip), vehicle: saline with Tween-80 102 % of control | dose: 200.0 mg/kg/injection, schedule: Q01DX009 (ip), vehicle: saline with Tween-80 104 % of control | dose: 400.0 mg/kg/injection, schedule: Q01DX009 (ip), vehicle: saline with Tween-80 101 % of control

COc1ccccc1-n1c(O)c(N=Nc2ccccc2)c(=O)n(-c2ccc(Br)cc2)c1=S
inactive: [1] 106 % of control | [2] 100 % of control | [3] 94 % of control

Nc1ccc2ccccc2c1N=Nc1ccc(C(O)C(N)CO)cc1 (stereo not given)
inactive: dose: 6.25 mg/kg/injection, schedule: Q01DX009 (ip), vehicle: saline 117 % of control | dose: 12.5 mg/kg/injection, schedule: Q01DX009 (ip), vehicle: saline 98 % of control | [4] 96 % of control

Cc1cc(=O)[nH]c(N=Nc2c(O)[nH]c3ccccc23)n1
inactive: [5] 98 % of control | [6] 93 % of control | [7] 88 % of control

FC(F)(F)COP1(OCC(F)(F)F)=NP(OCC(F)(F)F)(OCC(F)(F)F)=NP(c2ccccc2)(c2ccccc2)=N1
inactive: [4] 93 % of control | dose: 50.0 mg/kg/injection, schedule: Q01DX009 (ip), vehicle: saline 96 % of control | dose: 100.0 mg/kg/injection, schedule: Q01DX009 (ip), vehicle: saline 86 % of control

O=S(=O)(O)/C(=C\c1ccccc1)c1ccccc1 (tested in a mixture with another compound)
inactive: [8] 103 % of control | dose: 100.0 mg/kg/injection, schedule: Q04DX003 (ip), vehicle: other 106 % of control | [9] 104 % of control | dose: 200.0 mg/kg/injection, schedule: Q04DX003 (ip), vehicle: other 106 % of control | dose: 264.0 mg/kg/injection, schedule: Q01DX001 (ip), vehicle: other 108 % of control | dose: 400.0 mg/kg/injection, schedule: Q01DX001 (ip), vehicle: other 94 % of control | [10] 115 % of control

CSc1ccc(NC(=O)Oc2ccc3c(C)cc(=O)oc3c2)cc1
inactive: dose: 25.0 mg/kg/injection, schedule: Q01DX009 (ip), vehicle: saline with Tween-80 93 % of control and 100 % of control | dose: 50.0 mg/kg/injection, schedule: Q01DX009 (ip), vehicle: saline with Tween-80 95 % of control and 89 % of control | dose: 100.0 mg/kg/injection, schedule: Q01DX001 (ip), vehicle: saline with Tween-80 94 % of control | dose: 100.0 mg/kg/injection, schedule: Q04DX002 (ip), vehicle: saline with Tween-80 98 % of control and 91 % of control | [1] 87 % of control | dose: 200.0 mg/kg/injection, schedule: Q01DX001 (ip), vehicle: saline with Tween-80 94 % of control | dose: 200.0 mg/kg/injection, schedule: Q04DX002 (ip), vehicle: saline with Tween-80 94 % of control and 91 % of control | [2] 86 % of control | dose: 400.0 mg/kg/injection, schedule: Q01DX001 (ip), vehicle: saline with Tween-80 96 % of control | dose: 400.0 mg/kg/injection, schedule: Q04DX002 (ip), vehicle: saline with Tween-80 96 % of control and 98 % of control | [3] 95 % of control

N#CC(O)Cc1ccccc1 (stereo not given)
inactive: dose: 2.5 mg/kg/injection, schedule: Q01DX009 (ip), vehicle: saline 95 % of control | dose: 5.0 mg/kg/injection, schedule: Q01DX009 (ip), vehicle: saline 90 % of control | dose: 10.0 mg/kg/injection, schedule: Q01DX009 (ip), vehicle: saline 97 % of control

Cc1cn(C2SC(CO)C(O)C2O)c(=O)[nH]c1=O (stereo not given)
inactive: [11] 97 % of control | [8] 105 % of control | [9] 100 % of control | [10] 100 % of control

CCOC(=O)c1ccc(NC(=O)Nc2ccc(SC)cc2)cc1
inactive: [12] 98 % of control | [13] 95 % of control | [14] 104 % of control

Cc1cc(C)c2c(=O)[nH]c(=S)[nH]c2n1
inactive: [11] 102 % of control | [8] 108 % of control | [12] 95 % of control | [9] 102 % of control | [13] 91 % of control | [10] 98 % of control | [14] 98 % of control

CCOC(=O)c1ccc(NC(=S)NCc2cccnc2)cc1
inactive: [12] 106 % of control | [13] 97 % of control | [14] 102 % of control

OC[CH2][Hg][I]
inactive: dose: 1.56 mg/kg/injection, schedule: Q01DX009 (ip), vehicle: Klucel (hydroxypropylcellulose) (HPC) 88 % of control | dose: 6.25 mg/kg/injection, schedule: Q01DX009 (ip), vehicle: Klucel (hydroxypropylcellulose) (HPC) 93 % of control

CC1(C)C2CCC1(C)C(C(=O)C(F)(F)F)C2=O.CC1(C)C2CCC1(C)C(C(=O)C(F)(F)F)C2=O.[Co] (stereo not given)
inactive: dose: 100.0 mg/kg/injection, schedule: Q04DX002 (ip), vehicle: saline 110 % of control | dose: 200.0 mg/kg/injection, schedule: Q04DX002 (ip), vehicle: saline 94 % of control

CCOc1ccc(NC(=O)C(Br)C(Br)C(=O)O)cc1 (stereo not given)
inactive: [12] 94 % of control | [13] 98 % of control | [14] 100 % of control

CCOC(=O)Nc1cc2n[nH]nc2c(NC(c2ccccc2)c2ccccc2)n1
inactive: [1] 94 % of control | [2] 87 % of control | [3] 92 % of control

CS(=O)(=O)Nc1nc2ccccc2s1
inactive: dose: 100.0 mg/kg/injection, schedule: Q04DX003 (ip), vehicle: carboxymethylcellulose (CMC) 98 % of control | dose: 200.0 mg/kg/injection, schedule: Q04DX003 (ip), vehicle: carboxymethylcellulose (CMC) 98 % of control | dose: 400.0 mg/kg/injection, schedule: Q04DX003 (ip), vehicle: carboxymethylcellulose (CMC) 97 % of control

Cc1ccc2c[c]1[Hg][CH2]COS2(=O)=O
inactive: dose: 3.12 mg/kg/injection, schedule: Q04DX002 (ip), vehicle: Klucel (hydroxypropylcellulose) (HPC) 93 % of control | dose: 6.25 mg/kg/injection, schedule: Q04DX002 (ip), vehicle: Klucel (hydroxypropylcellulose) (HPC) 101 % of control | dose: 12.5 mg/kg/injection, schedule: Q04DX002 (ip), vehicle: Klucel (hydroxypropylcellulose) (HPC) 102 % of control and 90 % of control

CCN1c2ccccc2S(=O)c2cc([N+](=O)[O-])ccc21 (stereo not given)
inactive: dose: 50.0 mg/kg/injection, schedule: Q01DX001 (ip), vehicle: carboxymethylcellulose (CMC) 93 % of control | [5] 87 % of control | [6] 96 % of control | [7] 98 % of control
